The values below come from patent US20230339886A1 (University of Florida Research Foundation, Incorporated, priority 2020, published 2023).

A value given as a limit tells only on which side of the number the result lay.

The target of one test is T1, REV-ERBα LBD (human; residues 281-614 Δ324-422) (Homo sapiens, UniProt P20393, DEL324-422).
T1 construct: 6×Histag-REV-ERBα LBD (human; residues 281-614 Δ324-422); made in house; host or cells: Escherichia coli
T1 sequence (P20393 with tags, fused parts or gaps DEL324-422): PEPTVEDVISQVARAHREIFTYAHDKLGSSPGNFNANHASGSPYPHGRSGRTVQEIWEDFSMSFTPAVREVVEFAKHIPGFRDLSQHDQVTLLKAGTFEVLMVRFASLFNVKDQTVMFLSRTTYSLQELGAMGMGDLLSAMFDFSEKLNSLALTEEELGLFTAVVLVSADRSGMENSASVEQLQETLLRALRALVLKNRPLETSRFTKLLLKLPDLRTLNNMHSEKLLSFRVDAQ
T1 sequence (Q9Y618 2335-2356 partner limits assumed): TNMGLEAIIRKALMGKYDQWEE
Nature of the test: TR-FRET corepressor interaction assay (REV-ERBα LBD, FITC-SMRT peptide). Format: biochemical. The conditions noted are these: FITC-SMRT peptide, read-out: REVERBα agonism (EC50 class, FRET assay). In outline:
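Compound serial dilutions (in DMSO, triplicate) incubated 2 h at 4 °C; Tb donor excited at 340 nm, emission read at 495 nm and FITC acceptor at 520 nm. TR-FRET ratio (520/495 nm) plotted against ligand concentration and fitted to a sigmoidal dose-response curve.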
In general, EC50 refers to the concentration that produces a half-maximal response. Consider `CC(NS(=O)(=O)C1CCC1)c1cn(CC2CCCC2)c2cc(-c3ccccc3C(F)(F)F)ccc12` (stereo not shown) [Example 510, N-(1-(1-(cyclopentylmethyl)-6-(2-(trifluoromethyl)phenyl)-1H-indol-3-yl)ethyl)cyclobutanesulfonamide], for which the half-maximal effective concentration (EC50) is less than 0.5 µM.

Turning to `CC(C)(C)Cn1cc([C@H](NS(=O)(=O)C2CCC2)C(F)F)c2ccc(-c3c(C#N)cccc3C(F)(F)F)cc21` [Example 535, (S)—N-(1-(6-(2-cyano-6-(trifluoromethyl)phenyl)-1-neopentyl-1H-indol-3-yl)-2,2-difluoroethyl)cyclobutanesulfonamide], the EC50 was less than 0.5 µM.

Turning to `CC(C)(C)Cn1cc([C@H](NS(=O)(=O)C2CC2)C(F)F)c2ccc(-c3ccccc3C(F)(F)F)c(F)c21` [Example 553, (S)—N-(2,2-difluoro-1-(7-fluoro-1-neopentyl-6-(2-(trifluoromethyl)phenyl)-1H-indol-3-yl)ethyl)cyclopropanesulfonamide], the EC50 was less than 0.5 µM.

Regarding `CC(C)(C)Cn1cc([C@H](NS(=O)(=O)C2CCC2(F)F)C(F)(F)F)c2ccc(-c3ccccc3C(F)(F)F)cc21` (stereo partly drawn) [Example 537, 2,2-difluoro-N—((S)-2,2,2-trifluoro-1-(1-neopentyl-6-(2-(trifluoromethyl)phenyl)-1H-indol-3-yl)ethyl)cyclobutane-1-sulfonamide], the EC50 is greater than 3 µM.

As to `CC(C)(C)Cn1cc([C@H](NS(=O)(=O)C2CC2)C(F)(F)F)c2ccc(-c3c(Cl)cncc3Cl)cc21` [Example 470, (S)—N-(1-(6-(3,5-dichloropyridin-4-yl)-1-neopentyl-1H-indol-3-yl)-2,2,2-trifluoroethyl)cyclopropanesulfonamide], the EC50 is less than 0.5 µM.

As to `N#Cc1cccc(F)c1-c1ccc2c([C@H](NS(=O)(=O)C3CCC3)C(F)(F)F)cn(C3CCOCC3)c2c1` [Example 526, (S)—N-(1-(6-(2-cyano-6-fluorophenyl)-1-(tetrahydro-2H-pyran-4-yl)-1H-indol-3-yl)-2,2,2-trifluoroethyl)cyclobutanesulfonamide], the EC50 was less than 0.5 µM.

In the case of `CC(C)(C)Cn1cc([C@H](NS(=O)(=O)C2CCC2)C(F)(F)F)c2ccc(-c3ccccc3C(F)(F)F)c(F)c21` [Example 544, (S)—N-(2,2,2-trifluoro-1-(7-fluoro-1-neopentyl-6-(2-(trifluoromethyl)phenyl)-1H-indol-3-yl)ethyl)cyclobutanesulfonamide], the EC50 is less than 0.5 µM.

As for `CC(NS(=O)(=O)C12CC(C1)C2)c1cn(CC(C)(C)C)c2cc(-c3ccccc3C(F)(F)F)ccc12` (stereo not shown) [Example 433, N-(1-(1-neopentyl-6-(2-(trifluoromethyl)phenyl)-1H-indol-3-yl)ethyl)bicyclo[1.1.1]pentane-1-sulfonamide], the EC50 is less than 0.5 µM.

As for `CC(C)(C)Cn1cc([C@H](NS(=O)(=O)C2CC2)C(F)F)c2cc(F)c(-c3ccccc3C(F)(F)F)cc21` [Example 542, (S)—N-(2,2-difluoro-1-(5-fluoro-1-neopentyl-6-(2-(trifluoromethyl)phenyl)-1H-indol-3-yl)ethyl)cyclopropanesulfonamide], the EC50 is less than 0.5 µM.

For `Cc1cccc(C(F)(F)F)c1-c1ccc2c([C@H](NS(=O)(=O)C3CC3)C(F)(F)F)cn(CC(C)(C)C)c2c1` [Example 463, (S)—N-(2,2,2-trifluoro-1-(6-(2-methyl-6-(trifluoromethyl)phenyl)-1-neopentyl-1H-indol-3-yl)ethyl)cyclopropanesulfonamide], the EC50 is less than 0.5 µM.

Turning to `CC(C)(C)Cn1cc([C@H](NS(=O)(=O)C2CC2)C(F)(F)F)c2ccc(-c3ccccc3C#N)cc21` [Example 462, (S)—N-(1-(6-(2-cyanophenyl)-1-neopentyl-1H-indol-3-yl)-2,2,2-trifluoroethyl)cyclopropanesulfonamide], the EC50 is less than 0.5 µM.

With `CC(C)Cn1cc([C@H](NS(=O)(=O)C2CC2)C(F)(F)F)c2cc(F)c(-c3ccnc4c3CCCC4)cc21` [Example 454, N-[(1S)-2,2,2-trifluoro-1-[5-fluoro-1-isobutyl-6-(5,6,7,8-tetrahydroquinolin-4-yl)indol-3-yl]ethyl]cyclopropanesulfonamide], the EC50 is less than 0.5 µM.

As to `[2H]C(C)(NS(=O)(=O)C1CCC1)c1cn(CC(C)(C)C)c2cc(-c3ccccc3C(F)(F)F)ccc12` (stereo not shown) [Example 445, N-(1-(1-neopentyl-6-(2-(trifluoromethyl)phenyl)-1H-indol-3-yl)ethyl-1-d)cyclobutanesulfonamide], the EC50 is less than 0.5 µM.

Staying with this test, now noted: Table 2, read-out: REVERBα agonism (EC50 class, FRET assay).
As for `CN(C)S(=O)(=O)NCCc1cn(Cc2ccccc2)c2cc(-c3ccncc3)ccc12` [Compound 8], the EC50 is less than 0.5 µM.

For `CC(C)(C)C(=O)n1cc(CNS(=O)(=O)C(F)(F)F)c2cc(F)c(-c3ccncc3Cl)cc21` [Compound 285], the EC50 is greater than 3 µM.

`CC(C)Cn1cc(CCN(C(C)C)S(=O)(=O)C(C)C)c2ccc(-c3ccncc3)cc21` [Compound 277]: the EC50 was less than 0.5 µM.

Regarding `CC(C)Cn1cc(C(C)CNS(=O)(=O)C(C)C)c2ccc(-c3ccccc3)cc21` (stereo not shown) [Compound 254], the EC50 is greater than 3 µM.

In the case of `CC(C)Cn1cc(CCNS(=O)(=O)N(C)C)c2ccc(C#N)cc21` [Compound 96, 3-{2-[(dimethylsulfamoyl)amino]ethyl}-1-(2-methylpropyl)-1H-indole-6-carbonitrile], the EC50 was less than 0.5 µM.

Take `CC(C)(C)Cn1cc(CCNS(=O)(=O)C2CC2)c2cc(F)c(-c3ccncc3Cl)cc21` [Compound 288]: the EC50 is less than 0.5 µM.

Regarding `CC(C)(C)Cn1cc([C@H](NS(=O)(=O)C2CCC2)C(F)(F)F)c2ccc(C(F)(F)F)cc21` [Example 416, (S)—N-(2,2,2-trifluoro-1-(1-neopentyl-6-(trifluoromethyl)-1H-indol-3-yl)ethyl)cyclobutanesulfonamide], the EC50 is greater than 3 µM.

Consider `Cc1noc(C)c1-c1ccc2c(CCNS(=O)(=O)N(C)C)cn(CC(C)C)c2c1` [Compound 64, ({2-[6-(3,5-dimethyl-1,2-oxazol-4-yl)-1-(2-methylpropyl)-1H-indol-3-yl]ethyl}sulfamoyl)dimethylamine], for which the EC50 is greater than 3 µM.

In the case of `CCn1cc(CCNS(=O)(=O)N(C)C)c2ccc(Br)cc21` [Compound 157, {[2-(6-bromo-1-ethyl-1H-indol-3-yl)ethyl]sulfamoyl}dimethylamine], the EC50 is 0.5 to 3 µM.

For `CC(C)Cn1cc(CCNS(=O)(=O)N(C)C)c2ccc(-c3cccc(-c4ccccc4)c3)cc21` [Example 55, N-{2-[6-([1,1′-biphenyl]-3-yl)-1-(2-methylpropyl)-1H-indol-3-yl]ethyl}-N,N-dimethyl-sulfuric diamide], the EC50 was 0.5 to 3 µM.

As for `CN(C)S(=O)(=O)N[C@@H](c1cn(CC(C)(C)C)c2cc(-c3ccccc3Cl)ccc12)C(F)(F)F` [Example 338, {[(1S)-1-[6-(2-chlorophenyl)-1-(2,2-dimethylpropyl)-1H-indol-3-yl]-2,2,2-trifluoroethyl]sulfamoyl}dimethylamine], the EC50 was less than 0.5 µM.

With `CC(C)Cn1cc([C@H](NS(=O)(=O)N(C)C)C(F)(F)F)c2ccc(C(C)C)cc21` [Example 339, dimethyl({[(1S)-2,2,2-trifluoro-1-[1-(2-methylpropyl)-6-(propan-2-yl)-1H-indol-3-yl]ethyl]sulfamoyl})amine], the EC50 is less than 0.5 µM.

With `CC(C)Cn1cc(CCNS(=O)(=O)N(C)C)c2ccc(NC(C)C)cc21` [Example 111, N-{2-[6-isopropylamino-1-(2-methylpropyl)-1H-indol-3-yl]ethyl}-N,N-dimethylsulfuric diamide], the EC50 lay within 0.5 to 3 µM.

In the case of `CCn1cc(CCNS(=O)(=O)N(C)C)c2ccc(-c3ccncc3)cc21` [Example 132, N′-{2-[6-(pyridin-4-yl)-1-ethyl-1H-indol-3-yl]ethyl}-N,N-dimethylsulfuric diamide], the EC50 was greater than 3 µM.

Regarding `CC(C)Cc1cn(CCS(=O)(=O)C(C)C)c2ccc(Br)cc12` [Example 173, 5-bromo-3-isobutyl-1-(2-(isopropylsulfonyl)ethyl)-1H-indole], the EC50 fell in the range of 0.5 to 3 µM.

As to `CC(=O)N1CCC(c2ccc3c(CCNS(=O)(=O)N(C)C)cn(CC(C)C)c3c2)CC1` [Compound 103, 1-[4-(3-{2-[(dimethylsulfamoyl)amino]ethyl}-1-(2-methylpropyl)-1H-indol-6-yl)piperidin-1-yl]ethan-1-one], the EC50 was greater than 3 µM.

Take `CC(C)(C)Cn1cc([C@H](NS(=O)(=O)C2CC2)C(F)(F)F)c2ccc(-c3ccncc3C#N)cc21` [Example 384, (S)—N-(1-(6-(3-cyanopyridin-4-yl)-1-neopentyl-1H-indol-3-yl)-2,2,2-trifluoroethyl)cyclopropanesulfonamide]: the EC50 was less than 0.5 µM.

For `Cc1c(Br)ccc2c([C@H](NS(=O)(=O)C3CC3)C(F)(F)F)cn(CC(C)(C)C)c12` [Example 368, (S)—N-(1-(6-bromo-7-methyl-1-neopentyl-1H-indol-3-yl)-2,2,2-trifluoroethyl)cyclopropanesulfonamide], the EC50 lay in the range of 0.5 to 3 µM.

In the case of `Cc1ccc(-c2ccc3c(c2)c(CC(C)(C)C)cn3CCNS(=O)(=O)C2CC2)c(C(F)(F)F)c1` [Example 402, N-(2-(5-(4-methyl-2-(trifluoromethyl)phenyl)-3-neopentyl-1H-indol-1-yl)ethyl)cyclopropanesulfonamide], the EC50 is less than 0.5 µM.

Consider `CC(C)(C)Cc1cn(CCNS(=O)(=O)C2CC2)c2ccc(-c3ccc(N)c(F)c3Cl)cc12` [Example 229, N-(2-(5-(4-amino-2-chloro-3-fluorophenyl)-3-neopentyl-1H-indol-1-yl)ethyl) cyclo-propanesulfonamide], for which the EC50 is less than 0.5 µM.

Take `Cc1cc2c(cc1F)c([C@H](NS(=O)(=O)C1CC1)C(F)(F)F)cn2CC(C)C` [Example 312, (S)—N-(2,2,2-trifluoro-1-(5-fluoro-1-isobutyl-6-methyl-1H-indol-3-yl)ethyl)cyclopropanesulfonamide]: the EC50 is less than 0.5 µM.
